Patent publication US20220241308A1, “NEURONAL FUNCTION MODULATING AGENT” (University of Tsukuba, priority 2019, published 2022)

Columns and labels:
Assay type in all cases: cell-based
[1] = tested on: PI3KCA (phosphatidylinositol-4,5-bisphosphate 3-kinase catalyst subunit α); assay: Gene expression experiment (real-time PCR) in SH-SY5Y cells: PI3KCA; conditions: 12.56 μM, amyloid β protein-treated cells, 24 h; compared to “Aβ”
Procedure: (§1) SH-SY5Y cells were seeded in 100 mm-cell dishes (BD Biocoat) at concentrations of 3.7×10^5 cells/mL (10 mL/dish) and cultured for 24 h at 37° C. and 5% CO2. Culture medium used was F12/DMEM (Gibco) supplemented with 1% non-essential amino acids (Gibco), 15% FBS (Bio West), and 1% penicillin/streptomycin (Lonza). After 24 h, the culture medium was completely removed with an aspirator, 10 mL of culture medium Opti-MEM(Gibco) was added to each dish, and the cells were cultured for 24 h at 37° C. and 5% CO2. RNA was extracted from the culture cells and analyzed for the expression of genes described below by real-time PCR (designated as “Control” in FIGS. 2 to 8).
(§2) RNA extraction was performed using ISOGEN Reagent (Nippon Gene Co., Ltd.) in accordance with the protocol recommended by Nippo n Gene Co., Ltd. (see URL: https://www.nippongene.com/siyaku/product/extraction/tds/tds_isogen-rna-dna-protein.pdf). Real-time PCR was performed according to the protocol recommended by Thermo Fisher Scientific using a reagent kit for TaqMan Real-Time PCR (Thermo Fisher Scientific) (see URL: https://assets.thermofisher.com/TFS-Assets/LSG/manuals/4304449_TaqManPCRMM_UG.pdf).
(§3) 24 h after seeding 100 mm-cell dishes (BD Biocoat) with SH-SY5Y cells, the culture medium was completely removed with an aspirator, amyloid β protein (Beta-Amyloid 1-42, AnaSpec) was mixed with Opti-MEM (Gibco) so that the final concentration was 5 μM, 10 mL of the mixture was added to each dish, the cells were cultured for 24 h at 37° C. and 5% CO2, and RNA was extracted. Except for performing the procedure described above, gene expression was analyzed as described above (designated as “Aβ” in FIGS. 2 to 8).
(§4) 24 h after seeding 100 mm-cell dishes (BD Biocoat) with SH-SY5Y cells, the culture medium was completely removed with an aspirator, Sample 1 was mixed with culture medium Opti-MEM(Gibco) so that the final concentration was 12.56 μM, 9,990 μL of the mixture was added to each dish and allowed to stand for 10 min, amyloid β protein (Beta-Amyloid 1-42, AnaSpec) was mixed with Opti-MEM (Gibco) so that the final concentration was […], 10 μL of the mixture was added to each well, the cells were cultured for 24 h at 37° C. and 5% CO2, and RNA was extracted. Except for performing the procedure described above, Gene expression was analyzed as described above (designated as “Aβ+M3,5G” in FIGS. 2 to 8).
(§5) Except that Sample 2 was used instead of Sample 1, gene expression was analyzed as described above (designated as “Aβ+M” in FIGS. 2 to 8).
(§6) Except that Sample 3 was used instead of Sample 1, gene expression was analyzed as described above (designated as “Aβ+M3G” in FIGS. 2 to 8).
(§7) 24 h after seeding 100 mm-cell dishes (BD Biocoat) with SH-SY5Y cells, the culture medium was completely removed with an aspirator, 10 mL of culture medium Opti-MEM(Gibco) mixed with Sample 1 was added to each dish, the cells were cultured for 24 h at 37° C. and 5% CO2, and RNA was extracted. Except for performing the procedure described above, gene expression was analyzed as described above (designated as “M3,5G” in FIGS. 2 to 8).

[2] = tested on: MAP2K4 (mitogen-activated protein kinase 4); assay: Gene expression experiment (real-time PCR) in SH-SY5Y cells: MAP2K4; conditions: 12.56 μM, amyloid β protein-treated cells, 24 h; compared to “Aβ”
Procedure: as §1, §2, §3, §4, §5, §6, §7

[3] = tested on: PARP1 (poly(ADP-ribose) polymerase 1); assay: Gene expression experiment (real-time PCR) in SH-SY5Y cells: PARP1; conditions: 12.56 μM, amyloid β protein-treated cells, 24 h; compared to “Aβ”
Procedure: as §1, §2, §3, §4, §5
(§8) Except that Sample 3 was used instead of Sample 1, gene expression was analyzed as described above (designated as “Aβ+M3G” in FIGS. 2 to 8). […]

[4] = tested on: MAPK14 (mitogen-activated protein kinase 14); assay: Gene expression experiment (real-time PCR) in SH-SY5Y cells: MAPK14; conditions: 12.56 μM, amyloid β protein-treated cells, 24 h; compared to “Aβ”
Procedure: as §1, §2, §3, §4, §5, §8

[5] = tested on: MAPK8 (mitogen-activated protein kinase 8); assay: Gene expression experiment (real-time PCR) in SH-SY5Y cells: MAPK8; conditions: 12.56 μM, amyloid β protein-treated cells, 24 h; compared to “Aβ”
Procedure: as §1, §2, §3, §4, §5, §8

[6] = tested on: CASP3 (caspase-3); assay: Gene expression experiment (real-time PCR) in SH-SY5Y cells: CASP3; conditions: 12.56 μM, amyloid β protein-treated cells, 24 h; compared to “Aβ”
Procedure: as §1, §2, §3, §4, §5, §6, §7

[7] = tested on: SH-SY5Y cells; assay: Cell survival experiment (MTT), cell death induced by amyloid β protein; conditions: compound 12.56 μM, 72 h, compared to “Aβ”
Procedure: Each well of a 96-well plate (BD Biocoat) was seeded with SH-SY5Y cells (model of neuronal cells, ATCC) at a concentration of 2×10^5 cells/mL (100 μL/well) and the cells were cultured at 37° C. and 5% CO2 for 24 h. Culture medium used was F12/DMEM (Gibco) supplemented with 1% non-essential amino acids (Gibco), 15% FBS (Bio West), and 1% penicillin/streptomycin (Lonza).
After 24 h, the culture medium was completely removed with an aspirator, 100 μL of culture medium Opti-MEM (Gibco) was added to each well, and the cells were cultured at 37° C. and 5% CO2 for 24 h. […]
Absorbance at 570 nm was measured on a microplate reader (Sumitomo Dainippon Pharma) to measure the MTT formazan production to calculate % relative cell survival (designated as “Control” in FIG. 1).
24 h after seeding a 96-well plate (BD Biocoat) with SH-SY5Y cells, the culture medium was completely removed with an aspirator, amyloid β protein (Beta-Amyloid 1-42, AnaSpec) was mixed with Opti-MEM (Gibco) so that the final concentration was 15 μM, 100 μL of the mixture was added to each well, and the cells were cultured at 37° C. and 5% CO2 for 72 h to induce cell death. Except for performing the procedure described above, the MTT formazan production was measured as described above to calculate % relative cell survival (designated as “Aβ” in FIG. 1). […]

[8] = tested on: AKT1 (AKT serine/threonine kinase 1); assay: Gene expression experiment (real-time PCR) in SH-SY5Y cells: AKT1; conditions: 12.56 μM, amyloid β protein-treated cells, 24 h; compared to “Aβ”
Procedure: as §1, §2, §3, §4, §5, §6, §7

Row | Structure (SMILES) | expression of PI3KCA [1] | expression of MAP2K4 [2] | expression of PARP1 [3] | expression of MAPK14 [4] | expression of MAPK8 [5] | expression of CASP3 [6] | % relative cell survival [7] | expression of AKT1 [8]
1 | COc1cc(-c2[o+]c3cc(O)cc(O)c3cc2O)cc(OC)c1O [malvidin, Malvidin chloride, reference compound] | increase | increase | increase | increase | increase | decrease | Inhibition of cell death was also confirmed | increase
2 | COc1cc(-c2[o+]c3cc(O)cc(O)c3cc2O[C@@H]2O[C@H](CO)[C@@H](O)[C@H](O)[C@H]2O)cc(OC)c1O.[Cl-] [malvidin-3-glucoside, Malvidin-3-glucoside chloride, reference compound] | increase | increase | increase | increase |  |  |  | increase
